Source: patent publication US11660338B2, “Particles comprising a shell with RNA” (BIONTECH SE, priority 2013, dated 2023)

Test system: Vγ9Vδ2 T cells
Settings: 7-day co-culture, 5 μM ZA, 10 U/mL IL-2; mean of two donors

O=P(O)(O)C(O)(Cn1ccnc1)P(=O)(O)O [zoledronic acid]
expansion rate of Vγ9δ2 T cells: about 15 fold
